Laboratory results taken from patent publication US11524966B1 (Valo Early Discovery, Inc., priority 2017, dated 2022).
Read-outs that look alike come from different tables or passages of the source.

Target: T1, USP28 (His-tagged USP28-FL-mammalian) (Homo sapiens, UniProt Q96RU2)
T1 construct: Expression of USP28 (1-1077)-TEV-6*His (pTT5 vector); made in house; host or cells: Expi293f cells (pTT5 vector)
T1 sequence (Q96RU2 1-1077): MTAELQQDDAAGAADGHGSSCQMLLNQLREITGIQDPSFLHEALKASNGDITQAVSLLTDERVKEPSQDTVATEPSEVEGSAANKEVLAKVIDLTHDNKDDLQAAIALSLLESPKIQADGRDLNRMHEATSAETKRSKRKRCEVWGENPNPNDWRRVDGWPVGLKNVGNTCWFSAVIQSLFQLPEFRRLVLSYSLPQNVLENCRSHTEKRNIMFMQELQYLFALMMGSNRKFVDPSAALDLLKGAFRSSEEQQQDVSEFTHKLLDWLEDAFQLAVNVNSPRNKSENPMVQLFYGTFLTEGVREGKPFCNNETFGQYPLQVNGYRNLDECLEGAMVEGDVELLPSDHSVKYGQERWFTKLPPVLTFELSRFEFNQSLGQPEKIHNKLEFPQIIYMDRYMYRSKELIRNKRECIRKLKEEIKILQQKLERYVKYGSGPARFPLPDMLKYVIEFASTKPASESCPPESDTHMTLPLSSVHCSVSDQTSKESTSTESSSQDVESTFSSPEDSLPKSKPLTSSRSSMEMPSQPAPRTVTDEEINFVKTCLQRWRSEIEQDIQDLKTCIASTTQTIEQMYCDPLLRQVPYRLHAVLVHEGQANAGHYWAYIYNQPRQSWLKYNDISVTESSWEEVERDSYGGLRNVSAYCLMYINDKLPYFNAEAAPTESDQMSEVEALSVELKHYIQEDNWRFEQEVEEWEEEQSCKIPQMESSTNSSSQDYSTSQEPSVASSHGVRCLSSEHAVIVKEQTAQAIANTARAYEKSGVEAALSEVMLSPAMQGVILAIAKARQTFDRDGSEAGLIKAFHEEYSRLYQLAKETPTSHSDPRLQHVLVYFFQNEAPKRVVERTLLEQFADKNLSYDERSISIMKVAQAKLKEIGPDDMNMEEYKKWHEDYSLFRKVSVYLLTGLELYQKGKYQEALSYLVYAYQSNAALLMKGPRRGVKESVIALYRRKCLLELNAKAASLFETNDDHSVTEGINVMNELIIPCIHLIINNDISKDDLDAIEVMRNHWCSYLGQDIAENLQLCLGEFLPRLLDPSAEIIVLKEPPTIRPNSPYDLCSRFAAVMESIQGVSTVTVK
Assay: Ubiquitin-Rhodamine 110 Assay for USP28 Activity, Example A-1(a)
Format: biochemical
Conditions: Example A-1(a), read-out: USP28 A-1(a) IC50 range
Outline: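 Full-length His-tagged human USP28 (1-1077, Expi293f-expressed), […], with 25 nM Ub-Rh110 (<<Km) in pH 8.0 Tris buffer with BME, BGG, Triton X-100. 10-point dilutions (25 μM-1.3 nM), 45 min at room temperature, citric acid stop, fluorescence 485/535 nm; IC50 by 4-parameter fit.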

**Q.** With `Cc1cc(C)c2c(N)c(C(=O)N[C@H]3COc4cc(N5CCNCC5)ccc4C3)sc2n1` [Example 2-17, (R)-3-amino-4,6-dimethyl-N-(7-(piperazin-1-yl)chroman-3-yl)thieno[2,3-b]pyridine-2-carboxamide] as the compound, how does the IC50 (Ub-Rh110 assay) read?
**A.** The IC50 was 1 to 50 nM.

**Q.** With `CO[C@H]1CN(c2ccc3c(c2)OC[C@H](NC(=O)c2sc4nc(C)ccc4c2N)C3)C[C@@H]1N` (single isomer, unassigned) [Example 3-1] as the compound, how does the IC50 (Ub-Rh110 assay) read?
**A.** Its IC50 is 1 to 50 nM.

**Q.** Which IC50 (Ub-Rh110 assay) does the source give for `Cc1nc2sc(C(=O)N[C@H]3COc4cc(N5CCNCC5)ccc4C3)c(N)c2s1` [Example 1-25, (R)-6-amino-2-methyl-N-(7-(piperazin-1-yl)chroman-3-yl)thieno[2,3-d]thiazole-5-carboxamide] here?
**A.** The IC50 was 1 to 50 nM.

**Q.** How did the IC50 (Ub-Rh110 assay) turn out when `CCn1ccc2cc(C(=O)N[C@H]3COc4cc(N5CC6CCCC(C5)N6)ccc4C3)nnc21` [Example 2-29, N-((3R)-7-(3,9-diazabicyclo[3.3.1]nonan-3-yl)chroman-3-yl)-7-ethyl-7H-pyrrolo[2,3-c]pyridazine-3-carboxamide] was run?
**A.** The IC50 was 50 to 200 nM.

**Q.** How did the IC50 (Ub-Rh110 assay) turn out when `Cc1cnc2c(N)c(C(=O)N[C@H]3COc4cc(N5CC6CC(C5)N6)ccc4C3)sc2n1` [Example 2-11, N-((3R)-7-(3,6-diazabicyclo[3.1.1]heptan-3-yl)chroman-3-yl)-7-amino-3-methylthieno[2,3-b]pyrazine-6-carboxamide] was run?
**A.** Its IC50 is 1 to 50 nM.

**Q.** `Cc1cnc2c(N)c(C(=O)N[C@H]3CCc4nc(N5CCNCC5)ccc4C3)sc2n1` [Example 23-6, 7-amino-3-methyl-N-[(6S)-2-(piperazin-1-yl)-5,6,7,8-tetrahydroquinolin-6-yl]thieno[2,3-b]pyrazine-6-carboxamide] was tested. Which IC50 (Ubiquitin-Rhodamine 110 assay) did it give?
**A.** Its IC50 is 50 to 200 nM.

**Q.** Which IC50 (Ub-Rh110 assay) does the source give for `Nc1c(C(=O)N[C@H]2COc3cc(N4CC5CCC(C4)N5)ccc3C2)sc2ncc(F)cc12` (single isomer, unassigned) [Example 1-17] here?
**A.** The IC50 was 50 to 200 nM.

**Q.** `Cc1ccc2c(N)c(C(=O)N[C@@H]3COc4cc(N5CCNCC5)c(F)cc4C3)sc2n1` [Example 1-36, (S)-3-amino-N-(6-fluoro-7-(piperazin-1-yl)chroman-3-yl)-6-methylthieno[2,3-b]pyridine-2-carboxamide] was tested. Which IC50 (Ub-Rh110 assay) did it give?
**A.** The IC50 was over 2000 nM.

**Q.** For `Cc1nc2sc(C(=O)N[C@@H]3COc4cc(N5CCNCC5)ccc4C3)c(N)c2cc1F` (single isomer, unassigned) [Example 1-16], which IC50 (Ub-Rh110 assay) is on record?
**A.** Its IC50 is 200 to 2000 nM.

**Q.** Which IC50 (Ub-Rh110 assay) does the source give for `Cc1ccc2c(N)c(C(=O)N[C@H]3COc4cc(N5CCN[C@H](C)[C@@H]5C)ccc4C3)sc2n1` (single isomer, unassigned) [Example 1-9] here?
**A.** Its IC50 is 1 to 50 nM.

**Q.** Which IC50 (Ub-Rh110 assay) does the source give for `Cc1nc2sc(C(=O)N[C@H]3COc4cc(N5CC6CCCC(C5)N6)ccc4C3)c(N)c2s1` [Example 2-27] here?
**A.** Its IC50 is 1 to 50 nM.

**Q.** With `CCn1ccc2cc(C(=O)N[C@H]3COc4cc(N5CC6CNCC(C5)C6(F)F)ccc4C3)cnc21` [Example 2-30, N-((3R)-7-(9,9-difluoro-3,7-diazabicyclo[3.3.1]nonan-3-yl)chroman-3-yl)-1-ethyl-1H-pyrrolo[2,3-b]pyridine-5-carboxamide] as the compound, how does the IC50 (Ub-Rh110 assay) read?
**A.** Its IC50 is 1 to 50 nM.

**Q.** For `Cc1nc2sc(C(=O)N[C@H]3COc4cc(N5CC6CCC(C5)N6)ccc4C3)c(N)c2s1` [Example 1-23, N-((3R)-7-(3,8-diazabicyclo[3.2.1]octan-3-yl)chroman-3-yl)-6-amino-2-methylthieno[2,3-d]thiazole-5-carboxamide], which IC50 (Ub-Rh110 assay) is on record?
**A.** Its IC50 is 1 to 50 nM.

**Q.** `Nc1c(C(=O)N[C@@H]2COc3cc(N4CC5CCC(C4)N5)ccc3C2)sc2ncc(F)cc12` (single isomer, unassigned) [Example 1-18] was tested. Which IC50 (Ub-Rh110 assay) did it give?
**A.** Its IC50 is over 2000 nM.

**Q.** Which IC50 (Ub-Rh110 assay) does the source give for `Cc1ccc2c(N)c(C(=O)N[C@@H]3COc4cc(N5CC6CCC(C5)N6)ccc4C3)sc2n1` (single isomer, unassigned) [Example 1-4] here?
**A.** Its IC50 is 200 to 2000 nM.

**Q.** `Cc1cnc2c(N)c(C(=O)N[C@H]3COc4cc(N5CCNCC5)ccc4C3)sc2n1` (single isomer, unassigned) [Example 1-21] was tested. Which IC50 (Ub-Rh110 assay) did it give?
**A.** The IC50 was 1 to 50 nM.

**Q.** How did the IC50 (Ub-Rh110 assay) turn out when `Cc1ccc2c(N)c(C(=O)N[C@H]3COc4cc(N5CCNCC5)c(OC(F)(F)F)cc4C3)sc2n1` (single isomer, unassigned) [Example 1-31] was run?
**A.** Its IC50 is 200 to 2000 nM.

**Q.** Which IC50 (Ub-Rh110 assay) does the source give for `Cc1cnc2c(N)c(C(=O)N[C@H]3COc4cc(N5CC6CNCC(C5)O6)ccc4C3)sc2n1` [Example 2-13, N-((3R)-7-(9-oxa-3,7-diazabicyclo[3.3.1]nonan-3-yl)chroman-3-yl)-7-amino-3-methylthieno[2,3-b]pyrazine-6-carboxamide] here?
**A.** The IC50 was 1 to 50 nM.

**Q.** How did the IC50 (Ub-Rh110 assay) turn out when `Cc1nc2sc(C(=O)N[C@H]3COc4cc(N5CCNCC5)cc(F)c4C3)c(N)c2s1` (single isomer, unassigned) [Example 1-37] was run?
**A.** The IC50 was over 2000 nM.

**Q.** How did the IC50 (Ub-Rh110 assay) turn out when `Cc1nc2sc(C(=O)N[C@@H]3COc4cc(N5CC6CCC(C5)N6)ccc4C3)c(N)c2s1` [Example 1-24, N-((3S)-7-(3,8-diazabicyclo[3.2.1]octan-3-yl)chroman-3-yl)-6-amino-2-methylthieno[2,3-d]thiazole-5-carboxamide] was run?
**A.** Its IC50 is 200 to 2000 nM.

**Q.** Which IC50 (Ub-Rh110 assay) does the source give for `Cc1cnc2c(N)c(C(=O)N[C@@H]3CCc4cc(N5CCNCC5)c(C)cc4C3)sc2n1` (single isomer, unassigned) [Example 2-35] here?
**A.** The IC50 was over 2000 nM.

**Q.** How did the IC50 (Ub-Rh110 assay) turn out when `Cc1ccc2c(N)c(C(=O)N[C@H]3COc4cc(N5CCN[C@H](C)C5)ccc4C3)sc2n1` [Example 2-9, 3-amino-6-methyl-N-((R)-7-((R)-3-methylpiperazin-1-yl)chroman-3-yl)thieno[2,3-b]pyridine-2-carboxamide] was run?
**A.** Its IC50 is 1 to 50 nM.

**Q.** With `O=C(N[C@H]1COc2cc(N3CC4CCC(C3)N4)ccc2C1)c1cnc2c(c1)C1(CCN2)CC1` [Example 2-24, N-((3R)-7-(3,8-diazabicyclo[3.2.1]octan-3-yl)chroman-3-yl)-2′,3′-dihydro-1′H-spiro[cyclopropane-1,4′-[1,8]naphthyridine]-6′-carboxamide] as the compound, how does the IC50 (Ub-Rh110 assay) read?
**A.** Its IC50 is 50 to 200 nM.

**Q.** `Cc1ccc2c(N)c(C(=O)N[C@@H]3COc4c(ccc(N5CCNCC5)c4F)C3)sc2n1` [Example 1-34, (S)-3-amino-N-(8-fluoro-7-(piperazin-1-yl)chroman-3-yl)-6-methylthieno[2,3-b]pyridine-2-carboxamide] was tested. Which IC50 (Ub-Rh110 assay) did it give?
**A.** The IC50 was 200 to 2000 nM.

**Q.** For `O=C(N[C@H]1COc2cc(N3CC4CCC(C3)N4)ccc2C1)c1ccc(NCc2ccccc2)nc1` [Example 2-25, N-((3R)-7-(3,8-diazabicyclo[3.2.1]octan-3-yl)chroman-3-yl)-6-(benzylamino)nicotinamide], which IC50 (Ub-Rh110 assay) is on record?
**A.** Its IC50 is 50 to 200 nM.

**Q.** For `Cc1ccc2c(N)c(C(=O)N[C@@H]3COc4cc(N5CCNCC5)c(OC(F)(F)F)cc4C3)sc2n1` (single isomer, unassigned) [Example 1-32], which IC50 (Ub-Rh110 assay) is on record?
**A.** Its IC50 is 50 to 200 nM.

**Q.** How did the IC50 (Ub-Rh110 assay) turn out when `Cc1cnc2c(N)c(C(=O)N[C@@H]3COc4cc(N5CCNCC5)ccc4C3)sc2n1` (single isomer, unassigned) [Example 1-22] was run?
**A.** Its IC50 is 200 to 2000 nM.

**Q.** Which IC50 (Ub-Rh110 assay) does the source give for `Cc1ccc2c(N)c(C(=O)N[C@@H]3COc4cc(N5CCN[C@H](C)[C@H]5C)ccc4C3)sc2n1` (single isomer, unassigned) [Example 1-12] here?
**A.** Its IC50 is 1 to 50 nM.

**Q.** `Cc1ccc2c(N)c(C(=O)N[C@@H]3COc4cc(N5CCNCC5)ccc4C3)sc2n1` (single isomer, unassigned) [Example 1-2] was tested. Which IC50 (Ub-Rh110 assay) did it give?
**A.** The IC50 was 200 to 2000 nM.

**Q.** How did the IC50 (Ub-Rh110 assay) turn out when `Cc1ccc2c(N)c(C(=O)N[C@H]3COc4cc(N5CCCC56CNC6)ccc4C3)sc2n1` [Example 2-7, (R)-N-(7-(2,5-diazaspiro[3.4]octan-5-yl)chroman-3-yl)-3-amino-6-methylthieno[2,3-b]pyridine-2-carboxamide] was run?
**A.** Its IC50 is 1 to 50 nM.
